Earlier results in patent publication EP4364951A1, “OVERCOAT INK AND INK SET CONTAINING SAME” (DNP Fine Chemicals Co., Ltd., priority 2021, dated 2023).

Settings: water-octanol, common logarithm

| SMILES | Partition coefficient |
| --- | --- |
| COC(C)CCO (stereo not shown) [3-Methoxy-1-butanol] | 3-Methoxy -1-butanol (0.070) |
| CC(O)CO (stereo not shown) [1,2-Propanediol] | 1,2-Propanediol (-1.008) |
| CCC(O)CO (stereo not shown) [1,2-Butanediol] | 1,2-Butanediol (-0.499) |
| CCOCCOCCO [Diethylene glycol monoethyl ether] | Diethylene glycol monoethyl ether (-0.421) |
| OCCCO [1,3-Propanediol] | 1,3-Propanediol (-1.093) |
| CCCC(O)CO (stereo not shown) [1.2-Pentanediol] | 1.2-Pentanediol (0.011) |
| CC(C)(O)CCO [3-M ethyl-1,3-butanediol] | 3- M ethyl- 1,3- butanediol (-0.329) |
